Measured values from patent US20260272895A1, “METHODS AND KITS FOR DELIVERY OF COMPOUNDS INTO CELLS” (Yale University, priority 2023, published 2026).

Key:
[1] = test system: retinal endothelial cells; assay: Retinal endothelial labeling after intravitreal / intraocular injection; format: in vivo, mouse; settings: intravitreal/intraocular injection (eEDiTS 50 μM in FIG. 14D)
[2] = molecular target: T1, Slco1a4 (Mus musculus, UniProt Q9EP96); assay: In vivo two-photon imaging in Slco1a4 knockout mice (Oatp1a/1b cluster knockout); parameters: FLAG; expressed in transfected cells; host or cells: cortical neurons of live mice, in utero electroporation at E14/E15
T1 sequence (Q9EP96 1-670): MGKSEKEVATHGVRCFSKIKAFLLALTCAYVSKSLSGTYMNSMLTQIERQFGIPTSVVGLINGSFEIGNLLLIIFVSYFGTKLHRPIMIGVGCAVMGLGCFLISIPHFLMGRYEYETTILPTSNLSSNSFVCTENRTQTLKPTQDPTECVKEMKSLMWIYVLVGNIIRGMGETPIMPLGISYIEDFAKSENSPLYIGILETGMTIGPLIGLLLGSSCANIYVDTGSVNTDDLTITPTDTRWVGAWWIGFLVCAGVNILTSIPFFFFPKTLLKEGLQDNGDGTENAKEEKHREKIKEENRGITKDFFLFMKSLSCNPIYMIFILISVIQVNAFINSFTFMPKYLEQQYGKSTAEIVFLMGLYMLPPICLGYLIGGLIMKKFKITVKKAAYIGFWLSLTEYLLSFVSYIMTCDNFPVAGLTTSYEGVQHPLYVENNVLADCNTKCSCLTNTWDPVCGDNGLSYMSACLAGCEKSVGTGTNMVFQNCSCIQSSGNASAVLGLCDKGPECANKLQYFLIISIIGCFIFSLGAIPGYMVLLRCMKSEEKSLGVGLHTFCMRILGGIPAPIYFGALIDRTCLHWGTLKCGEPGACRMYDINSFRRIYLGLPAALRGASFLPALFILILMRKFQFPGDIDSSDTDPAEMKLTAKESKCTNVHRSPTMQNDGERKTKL
Description: Briefly, animals are anaesthetized via intraperitoneal injections of ketamine/xylazine or via inhaled isoflurane. A region of the skull (3×3 mm) is gently removed with a high-speed drill and the underlying dura is removed. A small glass coverslip is placed over the skull to allow long term optical access for in vivo imaging. Labeling with fluorescent dyes is performed either via intravenous injections or topically application to the cortical surface for 20 min prior to glass cover placement. After recovery, in vivo images are acquired using a two-photon microscope (Bruker Technologies) equipped with a multimodal (fixed wavelength 1040 nm and tunable wavelength) InSight X3 two-photon laser (Spectra Physics) and 20× water immersion objective (Zeiss 1.0N.A.). The two-photon laser is appropriately tuned to excite particular fluorescent dyes and proteins as needed. In selected cases, following in vivo imaging, mice will be sacrificed and perfused for follow up immunohistochemistry and high-resolution confocal imaging (Leica SP8) to further confirm colocalization of dyes and cells expressing particular transporters.
One-month-old wild-type mice were anesthetized using a ketamine/xylazine solution at doses of 100 mg/kg and 10 mg/kg, respectively. The fur around the skull area was shaved, and buprenex (0.1 mg per kg) and carprofen (5 mg per kg) were administered subcutaneously. Mice were kept on a heating pad at 37° C., and anesthesia was periodically monitored. The skin was treated with povidone-iodine solution, followed by cleaning with ethanol, and eye ointment was applied. A small skin section was excised to expose the skull. Thinning of the skull was performed in a circular area, followed by delicately lifting of the remaining skull without harm to the underlying brain. Within the circular region, the dura was gently removed using fine forceps, and a 4 mm cover glass was softly pressed onto the brain surface and affixed to the skull. […]

[3] = molecular target: T1, Slco1a4; assay: Uptake by cells ectopically expressing Slco1a4 (in utero electroporation) in live mice; format: in vivo; parameters: FLAG; expressed in transfected cells; host or cells: cortical neurons of live mice, in utero electroporation at E14/E15; settings: topical cortical administration (50 μM where stated)
Description: IUE is performed at E14 or E15 as previously done. Briefly, timed pregnant mice are anaesthetized with ketamine/xylazine. The abdominal region is shaved, sterilized and a 3 cm midline incision is made in the skin and abdominal muscle. The uterine horns are exposed, and the lateral ventricle of each embryo is pressure injected (Picospritzer II, General Valve) with plasmid DNA (~[…] volume per embryo) at a concentration of […] followed by electroporation with tweezertrodes (50 V, 4-50 ms pulses with I s pulse interval. BTX Harvard Apparatus). The embryos are placed back in the mother womb, and the muscle and skin are sutured. Electroporated pups are aged to postnatal day 30. Imaging is performed through a craniotomy over the transfected hemisphere following dye labeling.
Briefly, animals are anaesthetized via intraperitoneal injections of ketamine/xylazine or via inhaled isoflurane. A region of the skull (3×3 mm) is gently removed with a high-speed drill and the underlying dura is removed. A small glass coverslip is placed over the skull to allow long term optical access for in vivo imaging. […]
One-month-old wild-type mice were anesthetized using a ketamine/xylazine solution at doses of 100 mg/kg and 10 mg/kg, respectively. […] Mice were kept on a heating pad at 37° C., and anesthesia was periodically monitored. […]

## O=S(=O)([O-])c1cc(S(=O)(=O)O)ccc1C1=c2cc3c4c(c2Oc2cc(Br)ccc21)CCC[N+]=4CCC3 [Compound 1, 2-(12-bromo-1,2,3,5,6,7-hexahydrochromeno[2,3-f]pyrido[3,2,1-ij]quinolin-4-ium-9-yl)-5-sulfobenzenesulfonate]
[1]
  retinal endothelial labeling: rapid and highly specific labeling of retinal vasculature
[2]; Oatp1a/1b cluster knockout
  astrocyte uptake in knockout mice: Astrocyte uptake is seen in the knockout mice
[2]; application to cortical surface, concentration not given
  endothelial uptake in Slco1a4 knockout mice: complete disappearance of endothelial uptake
[3]
  uptake by neurons ectopically expressing Slco1a4: only those cells that express SLCO1A2 or SLCO1A4 (as evidenced by the GFP fluorescence (green)) take up compound 1

## COc1cc2c(c(OC)c1OC)-c1ccc(OC)c(=O)cc1C(NS(=O)(=O)c1ccc(-c3c4ccc(N(C)C)cc4[o+]c4cc(N(C)C)ccc34)c(S(=O)(=O)[O-])c1)CC2 (stereo not drawn) [Compound 47, 2-(3,6-bis(dimethylamino)xanthylium-9-yl)-5-(N-(1,2,3,10-tetramethoxy-9-oxo-5,6,7,9-tetrahydrobenzo[a]heptalen-7-yl)sulfamoyl)benzenesulfonate]
[2]; topical cortical administration 50 μM, compared to wildtype
  endothelial uptake in Slco1a4 knockout mice: complete elimination of Colchicine-eEDiTS uptake
[3]
  uptake by neurons ectopically expressing Slco1a4: marked uptake
